These results are taken from patent US8450522B2, “Conformationally constrained carboxylic acid derivatives useful for treating metabolic disorders” (Amgen Inc., priority 2008, dated 2013).

Assay [1] has as its target T1, GPR40 (Homo sapiens, UniProt O14842). Description: Inositol phosphate accumulation assay (A9 cell line stably transfected with GPR40). Format: cell-based. More on the design: expressed in transfected cells. To be noted: human GPR40, A9_GPR40 cells, 1 hour at 37° C.; read-out: IP3 EC50 (inositol phosphate assay data). Here is the method:
An A9 cell line stably transfected with GPR40 (A9_GPR40) was used in IP accumulation assays. A9_GPR40 cells were plated in 96-well plates containing 20,000 cells/well in DMEM containing 10% FBS. After the cells attached to the well surface, the media was replaced with inositol free DMEM containing 10% dialyzed FBS and 1 μCi, mL ^3H-inositol and incubated for 16 hours. Compounds were diluted in HBSS/10 mM LiCl containing a desired amount of HSA and added directly to cells. Following 1 hour incubation at 37° C., the media was replaced with 100 μl of 20 mM formic acid to quench the reaction. 50 μL of the extract was then added to 100 μL of SPA beads, incubated overnight, and measured on a TopCount the following day.

Assay [2] addresses T1, GPR40. The assay can be described thus: Cell-based aequorin assay (CHO cells stably transfected with GPR40 and aequorin). To be noted: activation of human GPR40, CHO cells, 0.01% HSA. More on the design: expressed in transfected cells. Here is the method: Briefly, the Aequorin assays were performed on doubly stable CHO cells expressing GPR40 and Aequorin DNA. […] The luminescence was recorded over a period of 20 seconds with a Microlumat luminometer (Berthold).
Cell-based aequorin assays were employed to characterize the modulatory activity of compounds on the GPR40 signaling pathway. In an exemplary assay, CHO cells were stably transfected with both GPR40 and Aequorin (Euroscreen). Cells were detached from the tissue culture dish with 2 mL of trypsin (0.25% (w/v)). Trypsinization was halted with 28 mL of Hanks Buffered Salt Solution containing 20 mM Hepes (H/HBSS) and 0.01% fatty acid-free human serum albumin (HSA). Coelantrazine is added to 1 ug/mL, and the cells were incubated for 2 hours at room temperature. Compounds were dissolved in DMSO for preparation of 10 mM stock solutions. Compounds were diluted in H/HBSS containing 0.01% HSA. Serial dilutions of the test compounds were prepared to determine dose response.
Aequorin luminescence measurements were made using an EG&G Berthold 96-well luminometer, and the response was measured over a 20 second interval after cells and compounds were mixed. The maximum relative light units was plotted to determine dose response. The EC50 (effective concentration to reach 50% maximal response) was determined from the dose response plot.

T1 sequence (O14842 whole entry): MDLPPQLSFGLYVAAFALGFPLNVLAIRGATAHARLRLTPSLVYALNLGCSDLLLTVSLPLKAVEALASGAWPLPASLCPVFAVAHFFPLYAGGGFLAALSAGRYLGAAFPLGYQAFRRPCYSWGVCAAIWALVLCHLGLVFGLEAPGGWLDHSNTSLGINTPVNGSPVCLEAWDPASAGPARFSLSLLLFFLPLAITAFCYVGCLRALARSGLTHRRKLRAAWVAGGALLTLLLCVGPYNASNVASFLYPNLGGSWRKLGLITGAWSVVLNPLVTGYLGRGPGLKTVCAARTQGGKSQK

Take `COc1ccc(F)c(-c2ccc(COc3ccc4c(c3)[C@@H](CC(=O)O)CCC4)cc2C(C)(C)C)c1` (single isomer, unassigned) [Example 6, (R)-2-(7-(3-t-Butyl-4-(2-fluoro-5-methoxyphenyl)benzyloxy)1,2,3,4-tetrahydronaphthalen-1-yl)acetic acid or (S)-2-(7-(3-t-butyl-4-(2-fluoro-5-methoxyphenyl)benzyloxy)1,2,3,4-tetrahydronaphthalen-1-yl)acetic acid]: the EC50 at GPR40 [1] and at GPR40 [2] was 100 to 1000 nM in each case.
`COc1ccc(F)c(-c2ccc(COc3ccc4c(c3)[C@@H](C(C)C(=O)O)CC4)cc2C(C)(C)C)c1` (single isomer, unassigned) [Example 7, (S)-2-(6-(3-t-Butyl-4-(2-fluoro-5-methoxyphenyl)benzyloxy)-2,3-dihydro-1H-inden-1-yl)propanoic acid or (R)-2-(6-(3-t-butyl-4-(2-fluoro-5-methoxyphenyl)benzyloxy)-2,3-dihydro-1H-inden-1-yl)propanoic acid]: the EC50 at GPR40 [1] and at GPR40 [2] was 100 to 1000 nM in each case.
In the case of `CCCCOc1cc(COc2ccc3c(c2)[C@@H](CC(=O)O)CC3)ccc1-c1cc(OC)ccc1F` (single isomer, unassigned) [Example 17, ((1R)-6-(((2-(butyloxy)-2′-fluoro-5′-(methyloxy)-1,1′-biphenyl-4-yl)methyl)oxy)-2,3-dihydro-1H-inden-1-yl)acetic acid or ((1S)-6-(((2-(butyloxy)-2′-fluoro-5′-(methyloxy)-1,1′-biphenyl-4-yl)methyl)oxy)-2,3-dihydro-1H-inden-1-yl)acetic acid], the EC50 on GPR40 [1] was 1000 to 10000 nM; on GPR40 [2], 100 to 1000 nM.
In the same order, the values of `COc1ccc(F)c(-c2ccc(COc3ccc4c(c3)[C@](C)(CC(=O)O)CC4)cc2[C@H]2CCCC2(C)C)c1` (single isomer, unassigned) [Example 18, {(S)-6-[2-((S)-2,2-Dimethyl-cyclopentyl)-2′-fluoro-5′-methoxy-biphenyl-4-ylmethoxy]-1-methyl-indan-1-yl}-acetic acid or diastereomer thereof] are 10 to 100 nM and 100 to 1000 nM.
In the same order, the values of `COc1ccc(F)c(-c2ccc(COc3ccc4c(c3)[C@@](C)(CC(=O)O)CC4)cc2[C@@H]2CCCC2(C)C)c1` (single isomer, unassigned) [Example 19, {(R)-6-[2-((S)-2,2-Dimethyl-cyclopentyl)-2′-fluoro-5′-methoxy-biphenyl-4-ylmethoxy]-1-methyl-indan-1-yl}-acetic acid or diastereomer thereof] are less than 10 nM and 100 to 1000 nM.
`COc1cc(-c2ccc(COc3ccc4c(c3)[C@@](C)(CC(=O)O)CC4)cc2[C@@H]2CCCC2(C)C)c(F)cn1` (single isomer, unassigned) [Example 20, {(R)-6-[3-((S)-2,2-Dimethyl-cyclopentyl)-4-(5-fluoro-2-methoxy-pyridin-4-yl)-benzyloxy]-1-methyl-indan-1-yl}-acetic acid or diastereomer thereof]: the results for the EC50 on GPR40 [1] and on GPR40 [2] were less than 10 nM and 100 to 1000 nM, respectively.
In the same order, the values of `COc1ccc(F)c(-c2ccc(COc3ccc4c(c3)[C@@H](C(C)(C)C(=O)O)CC4)cc2[C@H]2CCCC2(C)C)c1` (single isomer, unassigned) [Example 21] are 10 to 100 nM and 100 to 1000 nM.
For `COc1ccc(F)c(-c2ccc(COc3ccc4c(c3)[C@@H](CC(=O)O)CC4)cc2[C@H]2CCCC2(C)C)c1` (single isomer, unassigned) [Example 22], in that order: 10 to 100 nM and 100 to 1000 nM.
As for `COc1cc(-c2ccc(COc3ccc4c(c3)[C@@H](CC(=O)O)CC4)cc2[C@H]2CCCC2(C)C)c(F)cn1` (single isomer, unassigned) [Example 23], the results for the EC50 at GPR40 [1] and on GPR40 [2] were 10 to 100 nM and 100 to 1000 nM, respectively.
For `COc1ccc(F)c(-c2ccc(COc3ccc4c(c3)[C@@H](CC(=O)O)CC4)cc2[C@@H](OC)C(C)(C)C)c1` (single isomer, unassigned) [Example 24], in that order: 10 to 100 nM and 100 to 1000 nM.
Turning to `COc1ccc(F)c(-c2cc(F)c(COc3ccc4c(c3)[C@@](C)(CC(=O)O)CC4)cc2[C@H]2CCCC2(C)C)c1` (single isomer, unassigned) [Example 33, ((1R)-6-((2-((1S)-2,2-Dimethylcyclopentyl)-2′,5-difluoro-5′-methoxy-4-biphenylyl)methoxy)-1-methyl-2,3-dihydro-1H-inden-1-yl)acetic acid or ((1R)-6-((2-((1R)-2,2-dimethylcyclopentyl)-2′,5-difluoro-5′-methoxy-4-biphenylyl)methoxy)-1-methyl-2,3-dihydro-1H-inden-1-yl)acetic acid], the EC50 at GPR40 [1] was less than 10 nM; on GPR40 [2], 10 to 100 nM.
In the same order, the values of `COc1cc(-c2cc(F)c(COc3ccc4c(c3)[C@@](C)(CC(=O)O)CC4)cc2[C@H]2CCCC2(C)C)c(F)cn1` (single isomer, unassigned) [Example 34, ((1R)-6-((5-((1S)-2,2-Dimethylcyclopentyl)-2-fluoro-4-(5-fluoro-2-methoxy-4-pyridinyl)benzyl)oxy)-1-methyl-2,3-dihydro-1H-inden-1-yl)acetic acid or ((1R)-6-((5-((1R)-2,2-dimethylcyclopentyl)-2-fluoro-4-(5-fluoro-2-methoxy-4-pyridinyl)benzyl)oxy)-1-methyl-2,3-dihydro-1H-inden-1-yl)acetic acid] are less than 10 nM and 100 to 1000 nM.
For `COc1ccc(F)c(-c2c(F)cc(COc3ccc4c(c3)[C@@](C)(CC(=O)O)CC4)cc2[C@H]2CCCC2(C)C)c1` (single isomer, unassigned) [Example 35, ((1R)-6-((2-((1S)-2,2-Dimethylcyclopentyl)-2′,6-difluoro-5′-methoxy-4-biphenylyl)methoxy)-1-methyl-2,3-dihydro-1H-inden-1-yl)acetic acid or ((1R)-6-((2-((1R)-2,2-dimethylcyclopentyl)-2′,6-difluoro-5′-methoxy-4-biphenylyl)methoxy)-1-methyl-2,3-dihydro-1H-inden-1-yl)acetic acid], in that order: less than 10 nM and 100 to 1000 nM.
For `COc1ccc(F)c(-c2ccc(COc3ccc4c(c3)[C@@](C)(CC(=O)O)CC4)cc2[C@@H](OC)C(C)(C)C)c1` (single isomer, unassigned) [Example 36, ((1R)-6-((2′-Fluoro-5′-methoxy-2-((1S)-1-methoxy-2,2-dimethylpropyl)-4-biphenylyl)methoxy)-1-methyl-2,3-dihydro-1H-inden-1-yl)acetic acid or ((1R)-6-((2′-fluoro-5′-methoxy-2-((1R)-1-methoxy-2,2-dimethylpropyl)-4-biphenylyl)methoxy)-1-methyl-2,3-dihydro-1H-inden-1-yl)acetic acid], in that order: less than 10 nM and 100 to 1000 nM.
As to `COc1cc(-c2ccc(COc3ccc4c(c3)[C@@](C)(CC(=O)O)CC4)cc2[C@@H](OC)C(C)(C)C)c(F)cn1` (single isomer, unassigned) [Example 37, 2-((1R)-6-(4-(5-Fluoro-2-methoxypyridin-4-yl)-3-((S)-1-methoxy-2,2-dimethylpropyl)benzyloxy)-1-methyl-2,3-dihydro-1H-inden-1-yl)acetic acid or 2-((1R)-6-(4-(5-fluoro-2-methoxypyridin-4-yl)-3-(R)-1-methoxy-2,2-dimethylpropyl)benzyloxy)-1-methyl-2,3-dihydro-1H-inden-1-yl)acetic acid], the EC50 on GPR40 [1] is less than 10 nM; on GPR40 [2], 100 to 1000 nM.
In the same order, the values of `COc1cc(-c2ccc(COc3ccc4c(c3F)[C@@](C)(CC(=O)O)CC4)cc2[C@H]2CCCC2(C)C)c(F)cn1` (single isomer, unassigned) [Example 38, {(R)-6-[3-((S)-2,2-Dimethyl-cyclopentyl)-4-(5-fluoro-2-methoxy-pyridin-4-yl)-benzyloxy]-7-fluoro-1-methyl-indan-1-yl}-acetic acid or stereoisomer thereof] are 10 to 100 nM and 100 to 1000 nM.
For `COc1cc(-c2ccc(COc3ccc4c(c3)[C@](C)(CC(=O)O)CCC4)cc2[C@H]2CCCC2(C)C)c(F)cn1` (single isomer, unassigned) [Example 49], the EC50 on GPR40 [2] lay within 100 to 1000 nM.
Same read-out and setting: under `COc1ccc(F)c(-c2ccc(COc3ccc4c(c3)[C@H]([C@@H](C)C(=O)O)CC4)cc2C(C)(C)C)c1` [Example 13] stands 100 to 1000 nM; under `COc1cc(-c2ccc(COc3ccc4c(c3F)C(C)(CC(=O)O)CC4)cc2C(OC)C(C)(C)C)c(F)cn1` [Example 41, {(S)-7-Fluoro-6-[4-(5-fluoro-2-methoxy-pyridin-4-yl)-3-((S)-1-methoxy-2,2-dimethyl-propyl)-benzyloxy]-1-methyl-indan-1-yl}-acetic acid or stereoisomer thereof], 1000 to 10000 nM.

Usually EC50 stands for the concentration that produces a half-maximal response.
